Experimental findings from US8759334B2, “Compounds useful for the treatment of metabolic and inflammatory diseases” (Galapagos NV, priority 2011, dated 2014) are described below.

What is called IC50 is the point on the concentration scale where inhibition reaches its midpoint.

SMILES strings stand for the structures.

Assay [1] concerns the target T1, GPR43 (Homo sapiens, UniProt O15552).
T1 construct: expressed in transfected cells
T1 sequence (O15552 1-330): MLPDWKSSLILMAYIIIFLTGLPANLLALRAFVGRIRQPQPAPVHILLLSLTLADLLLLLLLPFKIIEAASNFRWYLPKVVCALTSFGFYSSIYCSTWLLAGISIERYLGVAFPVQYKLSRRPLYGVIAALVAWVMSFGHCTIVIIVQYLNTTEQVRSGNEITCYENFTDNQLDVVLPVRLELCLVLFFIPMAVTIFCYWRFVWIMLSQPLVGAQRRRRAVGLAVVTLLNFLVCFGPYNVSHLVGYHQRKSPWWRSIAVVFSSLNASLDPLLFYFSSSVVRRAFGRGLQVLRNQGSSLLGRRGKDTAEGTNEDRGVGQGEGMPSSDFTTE
The assay is described as follows: Calcium mobilization assay without probenecid. The assay is classed as cell-based. The note with it: GPR43 stably expressing cells, triggered with sodium acetate at EC80, read-out: GPR43 assay without probenicid IC50. The method, then: The following assay can be used for determination of GPR43 activation. The assay measures intracellular calcium release induced by activation of GPR43. On day 1, GPR43 stably expressing cells were detached with mild trypsinization (Trypsin, 0.25% with EDTA 4Na, 5× diluted in PBS) centrifuged at 1000 rpm for 5 min and resuspended at 6.000 cells/25 μL medium (DMEM supplemented with 10% FBS, 10 μg/mL puromycin and 1% Pen/Strep). The cells were distributed in poly-D-lysine coated 384 well plates (black with clear bottom, 25 μL/well) and incubated overnight at 37° C. 10% CO2. On day 2, 25 μL of a fluorescent Ca^2+ indicator (Calcium 4 assay; Molecular Devices) was added on top of the cells and incubated for 2 h at 37° C. Subsequently, compounds at increasing concentration (10 μL/well) were added to the plate and incubated for 15 min at 37° C. Finally the cells were triggered with sodium acetate at EC80 concentration (concentration which gives 80% of the activity of the GPR43) and the Ca-flux was measured simultaneously to the trigger injection on a fluorescence plate reader (FlexStation3), this measures the antagonist activity of the compounds. To measure agonist activity of the compounds, compound was added to the well and the Ca-flux was measured simultaneously to the injection of compound.
In general terms: Calcium assays in cells follow changes in intracellular calcium, usually with a dye or a luminescent sensor.

Assay [2] has as its target T1, GPR43. The assay is described as follows: Calcium mobilization assay with probenecid. The assay is classed as cell-based. The note with it: GPR43 stably expressing cells; triggered with sodium acetate at EC80; 2.5 mM probenecid; read-out: GPR43 assay with probenicid IC50. In short, it runs like this:
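Cells stably expressing GPR43 plated overnight at 37 °C, then loaded 2 h with Calcium 4 dye plus 2.5 mM probenecid. […]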

Consider `Cc1cc(C)cc(CC(=O)N2CCC2(C)C(=O)N(C)Cc2ccc(C(C)(C)C)cc2)c1` (stereo not drawn) [Compound 32, 1-[2-(3,5-Dimethyl-phenyl)-acetyl]-2-methyl-azetidine-2-carboxylic acid (4-tert-butyl-benzyl)-methyl-amide], for which the IC50 at GPR43 [1] and at GPR43 [2] was above 1 µM in each case.

Take `Cc1cc(C)cc(CC(=O)N2CCC2(C)C(=O)N(C)Cc2ccc(C)cc2C)c1` (stereo not drawn) [Compound 33, 1-[2-(3,5-Dimethyl-phenyl)-acetyl]-2-methyl-azetidine-2-carboxylic acid (2,4-dimethyl-benzyl)-methyl-amide]: the IC50 is 0.501 to 1 µM at GPR43 [1] and above 1 µM on GPR43 [2].

For the compound `Cc1cc(C)cc(CC(=O)N2CCC2(C)C(=O)N(C)Cc2ccc(CC(C)C)cc2)c1` (stereo not drawn) [Compound 34, 1-[2-(3,5-Dimethyl-phenyl)-acetyl]-2-methyl-azetidine-2-carboxylic acid (4-isobutyl-benzyl)-methyl-amide], the IC50 on GPR43 [1] and on GPR43 [2] was above 1 µM each time.

On to `CCN(Cc1ccc(Cl)cc1)C(=O)C1(C)CCN1C(=O)Cc1cc(C)cc(C)c1` (stereo not drawn) [Compound 35, 1-[2-(3,5-Dimethyl-phenyl)-acetyl]-2-methyl-azetidine-2-carboxylic acid (4-chloro-benzyl)-ethyl-amide], for which the IC50 at GPR43 [1] and on GPR43 [2] was 0.101 to 0.5 µM in each case.

On to `Cc1cc(C)cc(CC(=O)N2CCC2(C)C(=O)N(C)Cc2ccc(Cl)cc2Cl)c1` (stereo not drawn) [Compound 36, 1-[2-(3,5-Dimethyl-phenyl)-acetyl]-2-methyl-azetidine-2-carboxylic acid (2,4-dichloro-benzyl)-methyl-amide], for which the IC50 at GPR43 [1] and at GPR43 [2] was above 1 µM each time.

Turning to `Cc1cc(C)cc(CC(=O)N2CCC2(C)C(=O)N(C)Cc2ccc(OC(F)(F)F)cc2)c1` (stereo not drawn) [Compound 37, 1-[2-(3,5-Dimethyl-phenyl)-acetyl]-2-methyl-azetidine-2-carboxylic acid methyl-(4-trifluoromethoxy-benzyl)-amide], the IC50 at GPR43 [1] is 0.501 to 1 µM; at GPR43 [2] it was above 1 µM.

`COc1cccc(-c2ccc(CC(=O)N3CCC3(C)C(=O)N(C)Cc3ccc(Cl)cc3)cc2)c1` (stereo not drawn) [Compound 38, 1-[2-(3′-Methoxy-biphenyl-4-yl)-acetyl]-2-methyl-azetidine-2-carboxylic acid (4-chloro-benzyl)-methyl-amide]: the IC50 at GPR43 [1] and on GPR43 [2] was above 1 µM in each case.

Consider `Cc1cc(C)cc(CC(=O)N2CCC2(C)C(=O)N(C)Cc2ccc(Cl)c(F)c2)c1` (stereo not drawn) [Compound 42, 1-[2-(3,5-Dimethyl-phenyl)-acetyl]-2-methyl-azetidine-2-carboxylic acid (4-chloro-3-fluoro-benzyl)-methyl-amide], for which the IC50 on GPR43 [1] and on GPR43 [2] was above 1 µM throughout.

On to `Cc1ccc(CNC(=O)C2(C)CCN2C(=O)Cc2ccc(Cl)cc2Cl)cc1` (stereo not drawn) [Compound 43, 1-[2-(2,4-Dichloro-phenyl)-acetyl]-2-methyl-azetidine-2-carboxylic acid 4-methyl-benzylamide], for which the IC50 on GPR43 [1] and at GPR43 [2] was above 1 µM each time.

Consider `CC1(C(=O)NCc2ccc(C(F)(F)F)cc2)CCN1C(=O)Cc1ccc(Cl)cc1Cl` (stereo not drawn) [Compound 44, 1-[2-(2,4-Dichloro-phenyl)-acetyl]-2-methyl-azetidine-2-carboxylic acid 4-trifluoromethyl-benzylamide], for which the IC50 at GPR43 [1] and on GPR43 [2] was above 1 µM in each case.

For `CN(Cc1ccc(C(F)(F)F)cc1)C(=O)C1(C)CCN1C(=O)Cc1ccc(Cl)cc1Cl` (stereo not drawn) [Compound 45, 1-[2-(2,4-Dichloro-phenyl)-acetyl]-2-methyl-azetidine-2-carboxylic acid methyl-(4-trifluoromethyl-benzyl)-amide], the IC50 on GPR43 [1] and at GPR43 [2] was above 1 µM throughout.

In the case of `Cc1cc(C)cc(CC(=O)N2CCC2(C)C(=O)N(Cc2ccc(Cl)cc2)C2CC2)c1` (stereo not drawn) [Compound 46, 1-[2-(3,5-Dimethyl-phenyl)-acetyl]-2-methyl-azetidine-2-carboxylic acid (4-chloro-benzyl)-cyclopropyl-amide], the IC50 on GPR43 [1] and at GPR43 [2] was above 1 µM in each case.
